Laboratory results as given in publication PMC7730851, “Expression of Somatostatin Receptor Subtypes (SSTR-1–SSTR-5) in Pediatric Hematological and Oncological Disorders” (Molecules, 2020).
Entries after “also recorded” stand apart in the source; their conditions may differ. Like-named read-outs stand apart in the source and are kept apart here. Positions of bridges follow the written chain, without caps; N, C: chain ends. Non-standard residues stand in square brackets, D forms with d. Residues, ends and D or L forms follow the SMILES beside them.

Key:
[1] = molecular target: somatostatin receptors (SSTR); experiment: Ligand competition assay: binding of [125I]RC-160 to membrane homogenates of pediatric solid tumor samples (Scatchard / LIGAND-PC); set-up: species or system human
Experimental: (§1) Receptor binding affinities and concentrations of SSTRs in tumor membranes were also studied. […] Biochemical specifications and parameters crucial to characterize specific binding sites were also defined. […] Various peptides structurally related or unrelated to SST were used in these studies.
(§2) The radioiodinated derivatives of the RC-160 SST analogue were prepared by the chloramine-T method and purified by reverse phase high-performance liquid chromatography (RP-HPLC) as described previously. Somatostatin receptor-binding assays were performed as described previously with some minor modifications, using in vitro ligand competition assays based on the binding of [^125I] RC-160 as a radioligand to membrane fractions of the pediatric samples. This radioiodinated ligand has been well characterized and reported previously and has high affinity for SSTR-2 and SSTR-5 [4]. Tumor membrane homogenates were incubated as competitors with 50,000–70,000 cpm radioiodinated RC-160 and 10^−12–10^−6 M nonradioactive peptides. After incubation for 2 h, the binding reactions were stopped, and the bound ligand was separated and counted in a gamma counter. The LIGAND-PC computer curve-fitting software of Munson and Rodbard was used to determine the type of receptor binding, the dissociation constant (Kd), and the maximal binding capacity of SSTRs (Bmax). […] The final binding affinities were expressed as IC50 values. Protein concentration was determined by the method of Bradford using a Bio-Rad protein assay kit (Bio-Rad Laboratories, Inc.).

[2] = tested on: SSTR-5; details: cited from earlier work
[3] = tested on: SSTR-2; details: cited from earlier work
[4] = tested on: somatostatin receptors (SSTR); experiment: Displacement of [125I]RC-160 binding from membranes of human pediatric tumors by unlabeled peptides; details: for inhibition/displacement of the binding of radioiodinated RC-160: pediatric tumor membranes, competitor 10^-12-10^-6 M, concentrations as high as 1 µM; for displacement of [125I]RC-160 binding: membrane fractions of human rhabdomyosarcoma specimen, Figure 3
Experimental: as §1
Displacement of [^125I] RC-160 as a radioligand by the unlabeled SST analogs as competitor was determined.
as §2

[5] = tested on: SSTR-1; details: cited from earlier work
[6] = tested on: SSTR-3; details: cited from earlier work

CC(C)[C@@H]1NC(=O)[C@H](CCCCN)NC(=O)[C@@H](Cc2c[nH]c3ccccc23)NC(=O)[C@H](Cc2ccc(O)cc2)NC(=O)[C@@H](NC(=O)[C@H](N)Cc2ccccc2)CSSC[C@@H](C(=O)N[C@@H](Cc2c[nH]c3ccccc23)C(N)=O)NC1=O [[125I]RC-160] (H-[dF]CY[dW]KVCW-NH2; disulfide 2-7)
Kd ([1]; mean of seven receptor-positive pediatric tumor samples, read-out: mean dissociation constant (Kd)): 6 nM | Kd ([1]; patient 1, teratoma membranes, duplicates, read-out: SSTR Kd): 5.76 nM | Kd ([1]; patient 4, Hodgkin lymphoma membranes, duplicates, read-out: SSTR Kd): 8.01 nM | Kd ([1]; patient 5, rhabdomyosarcoma membranes, duplicates, read-out: SSTR Kd): 8.12 nM | Kd ([1]; patient 6, rhabdomyosarcoma membranes, duplicates, read-out: SSTR Kd): 4.31 nM | Kd ([1]; patient 7, hamartoma membranes, duplicates, read-out: SSTR Kd): 4.02 nM | Kd ([1]; range over seven receptor-positive pediatric tumor samples, read-out: dissociation constant (Kd), range): 4.02 to 8.12 nM | affinity for SSTR-5 [2]: high affinity | affinity for SSTR-2 [3]: high affinity

SST-14: somatostatin-14, native peptide
inhibition/displacement of the binding of radioiodinated RC-160 [4]: displaced completely

VIP: unrelated peptide used as specificity control (Figure 3)
displacement of [125I]RC-160 binding [4]: did not displace

[Tyr4]bombesin
inhibition/displacement of the binding of radioiodinated RC-160 [4]: none

bombesin
displacement of [125I]RC-160 binding [4]: did not displace

growth hormone-releasing hormone (GHRH): unrelated peptide used as specificity control
displacement of [125I]RC-160 binding [4]: did not displace | inhibition/displacement of the binding of radioiodinated RC-160 [4]: none

insulin-like growth factor I: unrelated peptide used as specificity control
inhibition/displacement of the binding of radioiodinated RC-160 [4]: none

luteinizing hormone-releasing hormone (LHRH): unrelated peptide used as specificity control
displacement of [125I]RC-160 binding [4]: did not displace | inhibition/displacement of the binding of radioiodinated RC-160 [4]: none

octreotide
affinity to SSTR-1 [5]: lower binding affinity | affinity to SSTR-3 [6]: approximately similar affinity | affinity to SSTR-5 [2]: high affinity; also recorded: approximately similar affinity | affinity to SSTR-2 [3]: high affinity; also recorded: highest affinity

pasireotide
affinity to SSTR-1 [5]: possesses an affinity | affinity to SSTR-3 [6]: possesses an affinity | affinity to SSTR-5 [2]: possesses an affinity
